Measured values from ChEMBL document CHEMBL3608283, “Pyrrolopyridine or Pyrazolopyridine Derivatives” (ACS Med Chem Lett, 2015).
Positions count from the first letter of the chain named.

Key:
[1] = target: T1, Muscarinic acetylcholine receptor M1 (Homo sapiens, UniProt P11229); experiment: Positive allosteric modulation of human muscarinic M1 receptor expressed in CHO cells assessed as basal and acetylcholine-stimulated Ca2+ level by FLIPR assay; assay type: functional, cell-based
T1 sequence (P11229 whole entry): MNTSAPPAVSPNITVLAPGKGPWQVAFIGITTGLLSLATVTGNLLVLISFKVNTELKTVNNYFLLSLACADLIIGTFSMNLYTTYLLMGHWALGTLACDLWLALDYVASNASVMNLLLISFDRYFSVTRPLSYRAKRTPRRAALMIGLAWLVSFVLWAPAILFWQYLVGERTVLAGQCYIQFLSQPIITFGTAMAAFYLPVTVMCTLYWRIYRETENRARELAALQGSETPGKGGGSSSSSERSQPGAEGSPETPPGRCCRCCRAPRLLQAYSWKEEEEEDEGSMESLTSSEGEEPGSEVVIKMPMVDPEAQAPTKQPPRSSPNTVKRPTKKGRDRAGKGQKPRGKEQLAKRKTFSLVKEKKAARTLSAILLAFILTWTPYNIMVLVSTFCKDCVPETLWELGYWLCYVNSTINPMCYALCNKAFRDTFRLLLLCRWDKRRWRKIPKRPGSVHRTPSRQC

[2] = target: T2, Muscarinic acetylcholine receptor M1 (Rattus norvegicus, UniProt P08482); experiment: Positive allosteric modulation of rat muscarinic M1 receptor expressed in CHO cells assessed as basal and acetylcholine-stimulated Ca2+ level by FLIPR assay; assay type: functional, cell-based
T2 sequence (P08482 whole entry): T1 sequence (P11229 whole entry) with A5V, T254S, P309S, R320K, A337G, I413V

Question: Which EC50 [1] does the source give for Cn1cc(-c2ccc(Cn3cc(C(=O)N[C@H]4CCOC[C@@H]4O)c4ncccc43)c(F)c2)cn1 here?
Answer: The EC50 was 28.5 nM.

Question: What about the EC50 [2] of the same molecule?
Answer: Its EC50 is 58.6 nM.

Question: Cn1ncc2cc(Cn3cc(C(=O)N[C@H]4COCC[C@@H]4O)c4ncccc43)ccc21 was tested. Which EC50 [1] did it give?
Answer: The EC50 was 71.5 nM.

Question: What about the EC50 [2] of the same molecule?
Answer: The EC50 was 162 nM.

Question: Which EC50 [1] does the source give for CNC(=O)c1ccc(Cn2cc(C(=O)N[C@H]3COCC[C@@H]3O)c3ncccc32)cc1 here?
Answer: The EC50 was 9.1 nM.

Question: What about the EC50 [2] of the same molecule?
Answer: The EC50 was 18 nM.

Question: Cn1cc(-c2ccc(Cn3cc(C(=O)N[C@H]4COCC[C@@H]4O)c4ncccc43)cc2)cn1 was tested. Which EC50 [1] did it give?
Answer: Its EC50 is 11.1 nM.

Question: What about the EC50 [2] of the same molecule?
Answer: Its EC50 is 13.8 nM.

Question: How did the EC50 [1] turn out when Cn1cc(-c2ccc(Cn3cc(C(=O)N[C@H]4COCC[C@@H]4O)c4ncccc43)cn2)cn1 was run?
Answer: Its EC50 is 34.8 nM.

Question: What about the EC50 [2] of the same molecule?
Answer: Its EC50 is 71.1 nM.

Question: What does the source list for Cn1cc(-c2ccc(Cn3cc(C(=O)N[C@H]4COCC[C@@H]4O)c4ncccc43)cc2F)cn1?
Answer: EC50 [1]: 15.5 nM; EC50 [2]: 18 nM

Question: Which EC50 [1] does the source give for Cn1cc(-c2ccc(Cn3cc(C(=O)N[C@H]4CCOC[C@@]4(C)O)c4ncccc43)c(F)c2)cn1 here?
Answer: Its EC50 is 47.9 nM.

Question: What about the EC50 [2] of the same molecule?
Answer: The EC50 was 63.2 nM.
